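Interpolation was linear, between the two tested concentrations surrounding the appropriate level; five concentrations were tested over 48 hours in 96-well plates. TGI is the concentration that stops growth completely.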
Tests used:
Assay in all cases: NCI anticancer screen, dose series, 48 h
[1] = tested on: A549 NSCLC
[2] = tested on: DU-145 prostate
[3] = tested on: 786-0 renal
[4] = tested on: SF-295 CNS
[5] = tested on: CAKI-1 renal
[6] = tested on: MDA-N
[7] = tested on: A498 renal
[8] = tested on: HL-60(TB) leukemia
[9] = tested on: NCI-H23 lung
[10] = tested on: MALME-3M melanoma
[11] = tested on: NCI-H226 lung
[12] = tested on: HCT-116 colon
[13] = tested on: NCI/ADR-RES ovarian
[14] = tested on: SK-MEL-28 melanoma
[15] = tested on: SNB-75 CNS
[16] = tested on: SW-620 colon
[17] = tested on: SN12C renal
[18] = tested on: UACC-257 melanoma
[19] = tested on: SF-268 CNS
[20] = tested on: OVCAR-4 ovarian
[21] = tested on: UACC-62 melanoma
[22] = tested on: HCC-2998 colon
[23] = tested on: MDA-MB-435
[24] = tested on: RPMI-8226 leukemia
[25] = tested on: OVCAR-3 ovarian
[26] = tested on: M14 melanoma
[27] = tested on: HT29 colon
[28] = tested on: SK-OV-3 ovarian
[29] = tested on: NCI-H522 lung
[30] = tested on: COLO 205 colon
[31] = tested on: HS 578T breast
[32] = tested on: HCT-15 colon
[33] = tested on: EKVX NSCLC
[34] = tested on: SNB-19 CNS
[35] = tested on: ACHN renal
[36] = tested on: MOLT-4 leukemia
[37] = tested on: HOP-62 NSCLC
[38] = tested on: KM12 colon
[39] = tested on: TK-10 renal
[40] = tested on: T-47D breast
[41] = tested on: K-562 leukemia
[42] = tested on: IGROV1 ovarian
[43] = tested on: HOP-92 NSCLC
[44] = tested on: NCI-H460 lung
[45] = tested on: BT-549 breast
[46] = tested on: SF-539 CNS
[47] = tested on: OVCAR-5 ovarian
[48] = tested on: CCRF-CEM leukemia
[49] = tested on: MCF7 breast
[50] = tested on: LOX IMVI melanoma
[51] = tested on: SK-MEL-5 melanoma
[52] = tested on: OVCAR-8 ovarian
[53] = tested on: MDA-MB-231 breast

C[C@H]1CC[C@@H]2[C@@H](C)C[C@H]3[C@@H]4C(C)(C)OC(=O)[C@]4(C)C(=O)[C@@]23C1=O
TGI [1]: > 100 µM
TGI [2]: > 100 µM
TGI [3]: > 100 µM
TGI [4]: > 100 µM
TGI [5]: > 100 µM
TGI [6]: > 100 µM
TGI [7]: > 100 µM
TGI [8]: > 100 µM
TGI [9]: > 100 µM
TGI [10]: > 100 µM
TGI [11]: > 100 µM
TGI [12]: > 100 µM
TGI [13]: > 100 µM
TGI [14]: > 100 µM
TGI [15]: > 100 µM
TGI [16]: > 100 µM
TGI [17]: > 100 µM
TGI [18]: > 100 µM
TGI [19]: > 100 µM
TGI [20]: > 100 µM
TGI [21]: > 100 µM
TGI [22]: > 100 µM
TGI [23]: > 100 µM
TGI [24]: > 100 µM
TGI [25]: > 100 µM
TGI [26]: > 100 µM
TGI [27]: > 100 µM
TGI [28]: > 100 µM
TGI [29]: > 100 µM
TGI [30]: > 100 µM
TGI [31]: > 100 µM
TGI [32]: > 100 µM
TGI [33]: > 100 µM
TGI [34]: > 100 µM
TGI [35]: > 100 µM
TGI [36]: > 100 µM
TGI [37]: > 100 µM
TGI [38]: > 100 µM
TGI [39]: > 100 µM
TGI [40]: 68.1 µM
TGI [41]: > 100 µM
TGI [42]: > 100 µM
TGI [43]: > 100 µM
TGI [44]: > 100 µM
TGI [45]: > 100 µM
TGI [46]: > 100 µM
TGI [47]: > 100 µM
TGI [48]: > 100 µM
TGI [49]: > 100 µM
TGI [50]: > 100 µM
TGI [51]: > 100 µM
TGI [52]: > 100 µM
TGI [53]: > 100 µM

Source: PubChem BioAssay (NCI)
